Here are results for 14 molecules from PubChem BioAssay (NCI).

SMILES strings stand for the structures.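 Each compound was tested at five concentrations against cells in 96-well plates for 48 hours. Abbreviation: GI50, concentration required for 50% inhibition of growth. TGI is the concentration that stops growth completely.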 Where a SMILES comes first, the peptide text is derived from it. [ ]: non-standard residue; d: D form.

Test systems include CAKI-1 renal; KM12 colon; MCF7 breast; U251 CNS; UACC-62 melanoma; SN12C renal; HOP-62 NSCLC; HCC-2998 colon; A549 NSCLC; HOP-92 NSCLC.
What all share (experiment): NCI-60 cell line screen, 48 h

As for `CC1(C)CCC2=C(O1)c1ccccc1C(=Nc1ccc([N+](=O)[O-])cc1)C2=O`, the TGI in the experiment on CAKI-1 renal was found to be 32.2 µM; in the experiment with KM12 colon it was 28.2 µM; with MCF7 breast, 27.7 µM; in the experiment on U251 CNS, 28.9 µM; with UACC-62 melanoma, 30.9 µM; in the experiment on SN12C renal, 29.3 µM. Moreover, the TGI was 34.1 µM in the experiment on HOP-62 NSCLC, 32.2 µM with HCC-2998 colon, 30 µM in the experiment with A549 NSCLC and over 100 µM in the experiment on HOP-92 NSCLC. Besides, in the experiment with SN12C renal, the GI50 is 15.9 µM.

Turning to `C=CC(=O)N1C/C(=C\c2ccc(OC)cc2)C(=O)/C(=C/c2ccc(OC)cc2)C1`, the TGI in the experiment on CAKI-1 renal was found to be 11.7 µM; in the experiment with KM12 colon, 5.22 µM; in the experiment with MCF7 breast it was 5.01 µM; with U251 CNS, 6.43 µM; with UACC-62 melanoma it was 4.37 µM; with SN12C renal, 6.83 µM. For the same molecule, the TGI came to 11.2 µM with HOP-62 NSCLC, 2.87 µM in the experiment with HCC-2998 colon, 8.16 µM with A549 NSCLC and 27 µM with HOP-92 NSCLC.

As for `O=S(=O)(O)c1cc(S(=O)(=O)O)c2cc(N=Nc3ccc(N=Nc4ccc(/C=C/c5ccc(N=[N+]([O-])c6ccc(/C=C/c7ccc(N=Nc8ccc(N=Nc9ccc%10cc(S(=O)(=O)O)cc(S(=O)(=O)O)c%10c9)cc8)cc7S(=O)(=O)O)c(S(=O)(=O)O)c6)cc5S(=O)(=O)O)c(S(=O)(=O)O)c4)cc3)ccc2c1`, the TGI in the experiment on KM12 colon is over 100 µM; in the experiment on MCF7 breast, over 100 µM; with U251 CNS, over 100 µM; in the experiment with UACC-62 melanoma, 65.4 µM; with SN12C renal, over 100 µM; with HOP-62 NSCLC, over 100 µM. Further, the TGI was over 100 µM with HCC-2998 colon, over 100 µM in the experiment with A549 NSCLC and 98.9 µM with HOP-92 NSCLC.

For the molecule `COCC(C#N)NC1CC(OC2CC(O)(C(=O)CO)Cc3c(O)c4c(c(O)c32)C(=O)c2c(OC)cccc2C4=O)OC(C)C1O` (configuration not stated), the TGI in the experiment with CAKI-1 renal was 0.285 µM; in the experiment on KM12 colon, 0.77 µM; in the experiment with MCF7 breast, 0.836 µM; in the experiment on U251 CNS it was 0.86 µM; in the experiment with UACC-62 melanoma, 0.21 µM; with SN12C renal, 2.02 µM. For the same molecule, the figures for the TGI in the experiment with HOP-62 NSCLC, in the experiment on HCC-2998 colon and in the experiment with HOP-92 NSCLC were 0.261 µM, 0.471 µM and 5 µM, respectively.

Consider `NS(=O)(=O)c1nnc(NS(=O)(=O)c2cccc3cccnc23)s1`, for which the TGI in the experiment with CAKI-1 renal, with KM12 colon, with MCF7 breast, with U251 CNS, in the experiment on UACC-62 melanoma and in the experiment on SN12C renal was over 100 µM in each case. The TGI in the experiment with HOP-62 NSCLC, in the experiment on HCC-2998 colon, in the experiment with A549 NSCLC and in the experiment with HOP-92 NSCLC was over 100 µM throughout.

Consider `CCC[N+](C)(C)CCCNC(=O)c1c(O)c2ccccc2[nH]c1=O`, for which the TGI in the experiment on CAKI-1 renal, in the experiment with KM12 colon, in the experiment on MCF7 breast, in the experiment on U251 CNS, in the experiment on UACC-62 melanoma and in the experiment with SN12C renal was over 100 µM each time. Further, the TGI with HOP-62 NSCLC, with HCC-2998 colon, in the experiment with A549 NSCLC and in the experiment with HOP-92 NSCLC was over 100 µM throughout.

Turning to `N=c1ncn(C/C=C/c2ccccc2)c2nc[nH]c12`, the TGI in the experiment with CAKI-1 renal, in the experiment with KM12 colon, in the experiment with MCF7 breast, in the experiment on U251 CNS, in the experiment on UACC-62 melanoma and in the experiment on SN12C renal was over 100 µM throughout. The TGI in the experiment on HOP-62 NSCLC, in the experiment with HCC-2998 colon, with A549 NSCLC and in the experiment with HOP-92 NSCLC was over 100 µM each time.

Consider `O=C(CCCCCNC(=O)c1ccc(Cl)cc1)NO`, for which the TGI in the experiment on CAKI-1 renal is 21.1 µM; in the experiment with KM12 colon, over 100 µM; in the experiment on MCF7 breast it was over 100 µM; in the experiment on U251 CNS, 24 µM; with UACC-62 melanoma, 12.1 µM; in the experiment on SN12C renal, 24.4 µM. The TGI in the experiment on HCC-2998 colon turned out to be 18.3 µM; with A549 NSCLC it was 81.9 µM; with HOP-92 NSCLC, 11.1 µM.

On to `CC(C)C[C@H](NC(=O)[C@H](CC(C)C)NC(=O)[C@@H](Cc1c[nH]c2ccccc12)NC(=O)[C@H](Cc1ccccc1)NC(=O)[C@@H](Cc1c[nH]c2ccccc12)NC(=O)[C@H](CCC(N)=O)NC(=O)[C@@H](CCC(N)=O)NC(=O)[C@@H]1CCCN1C(=O)[C@@H](CCCCN)NC(=O)[C@H]1CCCN1C(=O)[C@H](N)CCCN=C(N)N)C(N)=O` (H-[dR][dP][dK]P[dQ]Q[dW]F[dW]LL-NH2), for which the TGI in the experiment with KM12 colon is over 100 µM; with MCF7 breast, over 100 µM; in the experiment on U251 CNS, over 93.2 µM; in the experiment on UACC-62 melanoma, over 100 µM; in the experiment on SN12C renal, over 100 µM; in the experiment with HOP-62 NSCLC it was over 100 µM. Besides, the TGI in the experiment with HCC-2998 colon, with A549 NSCLC and in the experiment with HOP-92 NSCLC was over 100 µM throughout.

On to `N#Cc1sc2c(c1OC(=O)c1ccco1)c(=O)n(-c1ccccc1)c(=S)n2-c1ccccc1`, for which the TGI in the experiment on CAKI-1 renal was over 100 µM; in the experiment on KM12 colon, over 100 µM; with MCF7 breast it was over 100 µM; in the experiment on U251 CNS, 80.9 µM; with UACC-62 melanoma, 34.1 µM; with SN12C renal, over 100 µM. Further, the TGI in the experiment on HOP-62 NSCLC, in the experiment with HCC-2998 colon and in the experiment on A549 NSCLC was over 100 µM each time.

As for `COc1ccc(C2N(c3ccc(C)c(N=C=O)c3)C(=O)N3C(c4ccc(OC)cc4)N(c4ccc(C)c(N=C=O)c4)C(=O)N23)cc1` (configuration not stated), the TGI with CAKI-1 renal, in the experiment with KM12 colon, in the experiment on MCF7 breast, in the experiment on U251 CNS, in the experiment with SN12C renal and with HOP-62 NSCLC was over 100 µM throughout. Moreover, the TGI in the experiment on HCC-2998 colon, in the experiment with A549 NSCLC and with HOP-92 NSCLC was over 100 µM each time.

`CCCCCc1cc2cc3c(c(O)c2c(=O)[nH]1)C1(CCC3)C(=O)c2c(O)ccc(O)c2C1=O`: the TGI in the experiment with CAKI-1 renal, in the experiment on KM12 colon, in the experiment on MCF7 breast, in the experiment with U251 CNS, with SN12C renal and with HOP-62 NSCLC was over 100 µM in each case. In addition, the TGI with HCC-2998 colon, in the experiment with A549 NSCLC and in the experiment on HOP-92 NSCLC was over 100 µM in each case.

Take `COC(=O)C1=C(C)NC(C)=C(C(=O)OC)C1c1cccc(/[N+]([O-])=C/c2ccccc2)c1`: the TGI in the experiment with CAKI-1 renal was 32.3 µM; in the experiment on KM12 colon it was over 100 µM; in the experiment with MCF7 breast, 34.3 µM; in the experiment on U251 CNS it was over 100 µM; in the experiment with UACC-62 melanoma, over 100 µM; with HOP-62 NSCLC it was over 100 µM. Also, the TGI was over 100 µM with HCC-2998 colon, over 100 µM with A549 NSCLC and 38 µM with HOP-92 NSCLC.

Turning to `N#Cc1c(/C=C/c2ccccc2)c2c([nH]c1=S)CCCCC2`, the TGI in the experiment with CAKI-1 renal, in the experiment on KM12 colon, in the experiment on MCF7 breast, in the experiment on U251 CNS, in the experiment with SN12C renal and in the experiment on HOP-62 NSCLC was over 100 µM each time. The TGI in the experiment with HCC-2998 colon, with A549 NSCLC and in the experiment on HOP-92 NSCLC was over 100 µM in each case.
